One assay addresses T1, cGMP PDE5 (Homo sapiens, UniProt O76074).
T1 construct: The IC50 measurements for cGMP PDE5 were based upon data generated on human corpus cavernosum tissue; from tissue; host or cells: human corpus cavernosum
The experiment in a line: In vitro PDE inhibitory activity against cGMP PDE5 (IC50). Format: biochemical. The following applies: cGMP PDE5 from human corpus cavernosum tissue. From the text: (§1) The IC50 measurements for cGMP PDE5 were based upon data generated on human corpus cavernosum tissue and the IC50 measurements for rod cGMP PDE6 were based upon data generated on bovine retina tissue and wherein the selectivity ratio for cGMP PDE5 to cGMP PDE6 quoted is based upon IC50 PDE5/IC50 PDE6.

Another assay has as its target T2, rod cGMP PDE6 (Bos taurus, UniProt P11541+P23439).
T2 construct: the IC50 measurements for rod cGMP PDE6 were based upon data generated on bovine retina tissue; from tissue; host or cells: bovine retina
T2 sequence (P11541 2-856 limits assumed): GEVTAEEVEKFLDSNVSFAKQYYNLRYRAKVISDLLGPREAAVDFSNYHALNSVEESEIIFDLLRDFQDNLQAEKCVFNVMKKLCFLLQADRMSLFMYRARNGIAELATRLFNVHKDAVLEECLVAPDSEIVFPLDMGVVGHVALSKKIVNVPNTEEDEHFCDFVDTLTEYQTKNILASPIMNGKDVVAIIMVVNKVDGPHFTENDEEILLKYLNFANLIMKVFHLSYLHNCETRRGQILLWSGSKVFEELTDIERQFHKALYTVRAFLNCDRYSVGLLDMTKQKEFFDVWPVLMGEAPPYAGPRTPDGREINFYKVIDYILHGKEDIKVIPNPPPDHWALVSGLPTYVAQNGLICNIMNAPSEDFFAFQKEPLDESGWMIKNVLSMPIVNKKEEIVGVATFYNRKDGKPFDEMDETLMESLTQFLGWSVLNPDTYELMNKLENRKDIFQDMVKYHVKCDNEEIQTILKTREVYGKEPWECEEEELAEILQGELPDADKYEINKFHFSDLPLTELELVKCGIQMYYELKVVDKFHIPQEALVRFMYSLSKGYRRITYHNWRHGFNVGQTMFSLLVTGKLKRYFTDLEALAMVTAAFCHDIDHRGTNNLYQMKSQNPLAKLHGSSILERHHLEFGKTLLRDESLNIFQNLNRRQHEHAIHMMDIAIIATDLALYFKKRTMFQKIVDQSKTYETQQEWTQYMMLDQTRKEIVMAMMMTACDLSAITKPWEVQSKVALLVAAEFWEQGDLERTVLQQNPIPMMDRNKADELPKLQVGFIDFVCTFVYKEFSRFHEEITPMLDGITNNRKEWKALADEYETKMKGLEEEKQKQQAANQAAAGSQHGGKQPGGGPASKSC
T2 sequence (P23439 2-850 limits assumed): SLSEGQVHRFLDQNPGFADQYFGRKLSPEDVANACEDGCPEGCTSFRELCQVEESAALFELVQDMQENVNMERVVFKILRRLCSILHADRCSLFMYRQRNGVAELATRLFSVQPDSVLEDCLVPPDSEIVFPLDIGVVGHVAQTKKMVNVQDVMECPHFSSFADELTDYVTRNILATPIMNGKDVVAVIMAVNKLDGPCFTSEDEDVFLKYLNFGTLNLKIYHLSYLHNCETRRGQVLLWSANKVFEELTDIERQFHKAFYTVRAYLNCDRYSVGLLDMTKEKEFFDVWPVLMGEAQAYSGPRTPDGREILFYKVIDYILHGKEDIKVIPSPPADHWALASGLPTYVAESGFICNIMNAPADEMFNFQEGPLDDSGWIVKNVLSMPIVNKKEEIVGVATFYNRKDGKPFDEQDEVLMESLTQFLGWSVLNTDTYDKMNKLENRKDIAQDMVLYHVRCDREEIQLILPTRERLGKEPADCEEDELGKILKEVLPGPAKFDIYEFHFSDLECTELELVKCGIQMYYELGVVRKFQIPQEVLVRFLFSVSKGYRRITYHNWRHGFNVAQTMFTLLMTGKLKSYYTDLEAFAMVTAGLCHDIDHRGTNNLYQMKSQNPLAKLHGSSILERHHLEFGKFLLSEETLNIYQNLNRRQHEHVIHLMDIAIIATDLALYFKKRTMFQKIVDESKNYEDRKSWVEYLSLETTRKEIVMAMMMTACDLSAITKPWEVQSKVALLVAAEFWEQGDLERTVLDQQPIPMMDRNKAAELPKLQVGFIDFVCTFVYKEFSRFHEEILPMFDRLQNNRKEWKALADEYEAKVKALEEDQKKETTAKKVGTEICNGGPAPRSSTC
The experiment in a line: In vitro PDE inhibitory activity against rod cGMP PDE6 (IC50), used for the PDE5 versus PDE6 selectivity. Format: biochemical. The following applies: ratio of IC50 for cGMP PDE5 (human corpus cavernosum) and rod cGMP PDE6 (bovine retina).
From the text: as §1

SMILES strings stand for the structures.

`CCOc1ncc(S(=O)(=O)N2CCN(CC)CC2)cc1-c1nc2c(CC)n(CC(C)C)nc2c(=O)[nH]1` [Example 5]: the IC50 against cGMP PDE5 is 1 nM.
As to `CCOc1ncc(S(=O)(=O)N2CCN(CC)CC2)cc1-c1nc2c(CC)n(CCOC)nc2c(=O)[nH]1` [Example 8, 1-{6-ethoxy-5-[3-ethyl-6,7-dihydro-2-(2-methoxyethyl)-7-oxo-2H-pyrazolo[4,3-d]pyrimidin-5-yl]-3-pyridylsulfonyl}-4-ethylpiperazine], the “Selectivity (PDE 5/6)” value on rod cGMP PDE6 was found to be 223.8. In addition, half-maximal inhibition against cGMP PDE5 (IC50) was put at 1.68 nM.
The corresponding values for `CCCCOc1ncc(S(=O)(=O)N2CCN(CC)CC2)cc1-c1nc2c(CC)n(CCN(C)C)nc2c(=O)[nH]1` [Example 17, 5-[2-n-Butoxy-5-(4-ethylpiperazin-1-ylsulphonyl)pryridin-3-yl]-2-dimethylaminoethyl-3-ethyl-2,6-dihydro-7H-pyrazolo[4,3-d]pyrimidin-7-one] are 254.1 and 0.9 nM.
For the compound `CCOc1ncc(S(=O)(=O)N2CCN(CC)CC2)cc1-c1nc2c(CC)n(C3CN(C(C)=O)C3)nc2c(=O)[nH]1` [Example 22, 2-(1-Acetylazetidin-3-yl)-5-[2-ethoxy-5-(4-ethylpiperazin-1-ylsulphonyl)pyridin-3-yl]-3-ethyl-2,6-dihydro-7H-pyrazolo[4,3-d]pyrimidin-7-one], on rod cGMP PDE6, the “Selectivity (PDE 5/6)” value was 325.3. On cGMP PDE5, this compound showed an IC50 of 6.4 nM.
For the compound `CCCOc1ncc(S(=O)(=O)N2CCN(CC)CC2)cc1-c1nc2c(CC)n(CCN(C)C(C)=O)nc2c(=O)[nH]1` [Example 24], on rod cGMP PDE6, the “Selectivity (PDE 5/6)” value amounted to 134.9. The same compound came in with an IC50 at cGMP PDE5 of 1.52 nM.
Consider `CCCc1c2nc(-c3cc(S(=O)(=O)N4CCN(CC)CC4)cnc3OCC(C)C)[nH]c(=O)c2nn1CCOC` [Example 27, 5-[2-isoButoxy-5-(4-ethylpiperazin-1-ylsulphonyl)pyridin-3-yl]-2-(2-methoxyethyl)-3-n-propyl-2,6-dihydro-7H-prazolo[4,3-d]pyrimidin-7-one], for which the “Selectivity (PDE 5/6)” value on rod cGMP PDE6 is given as 161. The half-inhibitory concentration (IC50) against cGMP PDE5 was 0.85 nM.
`CCc1c2nc(-c3cc(S(=O)(=O)N4CCN(C)CC4)cnc3OCCOC)[nH]c(=O)c2nn1CC1CCC1` [Example 53, 2-Cyclobutylmethyl-3-ethyl-5-[2-(2-methoxyethoxy)-5-(4-methylpiperazin-1-ylsulphonyl)pyridin-3-yl]-2,6-dihydro-7H-pyrazolo[4,3-d]pyrimidin-7-one] yielded a half-maximal inhibitory concentration (IC50) against cGMP PDE5 of 1.09 nM.
Turning to `CCCCOc1ncc(S(=O)(=O)N2CCN(CC)CC2)cc1-c1nc2c(CC)n(CC(=O)N(C)C)nc2c(=O)[nH]1` [Example 60, 5-[2-n-Butoxy-5-(4-ethylpiperazin-1-ylsulphonyl)pyridin-3-yl]-2-[2-(dimethylamino)-2-oxoethyl]-3-ethyl-2,6-dihydro-7H-pyrazolo[4,3-d]pyrimidin-7-one], the “Selectivity (PDE 5/6)” value at rod cGMP PDE6 is 343.7. The compound further displayed an IC50 against cGMP PDE5 of 0.45 nM.

The values are drawn from US6677335B1, “Pharmaceutically active compounds” (Pfizer Inc, priority 1999, dated 2004).
